Among the data in ChEMBL document CHEMBL1129990, “Effect of N9-methylation and bridge atom variation on the activity of 5-substituted 2,4-diaminopyrrolo[2,3-d]pyrimidines against dihydrofolate reductases from Pneumocystis carinii and Toxoplasma gondii” (J Med Chem, 1997) are IC50 values, retold here.

Test [1] concerns the target T1, Dihydrofolate reductase (Pneumocystis carinii, UniProt P16184).
T1 sequence (P16184 whole entry): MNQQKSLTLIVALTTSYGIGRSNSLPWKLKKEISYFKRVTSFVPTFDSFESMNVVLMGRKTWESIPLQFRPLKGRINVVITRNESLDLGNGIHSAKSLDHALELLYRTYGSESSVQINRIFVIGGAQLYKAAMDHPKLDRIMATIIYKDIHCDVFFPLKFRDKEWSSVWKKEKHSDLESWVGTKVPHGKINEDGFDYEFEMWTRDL
Description: Inhibition against Dihydrofolate reductase in Pneumocystis carinii

The target of test [2] is T2, Bifunctional dihydrofolate reductase-thymidylate synthase (Toxoplasma gondii, UniProt Q07422).
T2 sequence (Q07422 whole entry): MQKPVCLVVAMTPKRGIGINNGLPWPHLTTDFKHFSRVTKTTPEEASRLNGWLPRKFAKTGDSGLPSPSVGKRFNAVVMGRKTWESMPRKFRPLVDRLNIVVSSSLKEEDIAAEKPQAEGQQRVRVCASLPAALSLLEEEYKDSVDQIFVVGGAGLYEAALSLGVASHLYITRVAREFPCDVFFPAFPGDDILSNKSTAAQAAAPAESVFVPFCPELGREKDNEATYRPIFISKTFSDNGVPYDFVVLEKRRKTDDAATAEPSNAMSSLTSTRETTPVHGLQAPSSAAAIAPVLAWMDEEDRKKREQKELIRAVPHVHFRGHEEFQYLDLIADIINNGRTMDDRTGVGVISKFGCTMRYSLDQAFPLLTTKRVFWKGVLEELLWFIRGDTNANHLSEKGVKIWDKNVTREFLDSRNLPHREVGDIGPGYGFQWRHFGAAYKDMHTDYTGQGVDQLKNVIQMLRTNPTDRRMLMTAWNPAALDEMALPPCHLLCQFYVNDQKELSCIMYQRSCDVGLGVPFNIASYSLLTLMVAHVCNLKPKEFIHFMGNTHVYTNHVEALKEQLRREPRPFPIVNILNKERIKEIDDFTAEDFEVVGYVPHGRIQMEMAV
Description: Inhibition against Dihydrofolate reductase in Toxoplasma gondii

Test [3] has as its target T3, Dihydrofolate reductase (Rattus norvegicus, UniProt Q920D2).
T3 sequence (Q920D2 whole entry): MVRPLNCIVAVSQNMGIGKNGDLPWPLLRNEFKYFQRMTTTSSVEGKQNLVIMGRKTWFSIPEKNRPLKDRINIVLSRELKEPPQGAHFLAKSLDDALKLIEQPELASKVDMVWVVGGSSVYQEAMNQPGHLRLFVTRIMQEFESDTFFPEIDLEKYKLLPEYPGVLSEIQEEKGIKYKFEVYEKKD
Description: Inhibition against Dihydrofolate reductase in rat liver

pIC50: −log10 of the molar value.

With `CN(Cc1c[nH]c2nc(N)nc(N)c12)c1ccc(C(=O)N(C)C(CCC(=O)O)C(=O)O)cc1` (centres undefined), the values for the pIC50 (at Dihydrofolate reductase [1]; in test [2]; at Dihydrofolate reductase [3]) were 7.36, 6.82 and 7.22, respectively.
On to `Nc1nc(N)c2c(CSc3ccc(Cl)c(Cl)c3)c[nH]c2n1`, for which the negative logarithm of the IC50 (pIC50) (in general, −log10 of the IC50, conventionally taken in molar units) against Dihydrofolate reductase [1] was 4.23; in test [2], 4.94; against Dihydrofolate reductase [3], 5.28.
Turning to `COc1ccc(SCc2c[nH]c3nc(N)nc(N)c23)cc1OC`, the pIC50 on Dihydrofolate reductase [1] was 4.95; in test [2], 5.59; against Dihydrofolate reductase [3], 4.78.
The like results for `COc1ccc(OC)c(N(C)Cc2c[nH]c3nc(N)nc(N)c23)c1` were, in that order, less than 4.92, 5.47 and less than 4.92.
Consider `Nc1nc(N)c2c(CSc3cccc4ccccc34)c[nH]c2n1`, for which the negative logarithm of the IC50 (pIC50) is 4.97 at Dihydrofolate reductase [1], 6.09 in test [2] and 5.52 at Dihydrofolate reductase [3].
The like results for `Nc1nc(N)c2c(CSc3ccc4ccccc4c3)c[nH]c2n1` were, in that order, 3.03, 5.04 and 4.08.
As to `CN(Cc1c[nH]c2nc(N)nc(N)c12)c1ccc(Cl)c(Cl)c1`, the figures for the negative-log IC50 (pIC50) (against Dihydrofolate reductase [1]; in test [2]; against Dihydrofolate reductase [3]) were 4.55, 6.00 and 5.52, respectively.
Taken in the same sequence, the figures for `CN(Cc1c[nH]c2nc(N)nc(N)c12)c1cccc2ccccc12` were 3.68, 6.06 and 5.09.
